For 1 molecule, Activity results are on record in ChEMBL document CHEMBL2073992, “Polarized transport of docetaxel and vinblastine mediated by P-glycoprotein in human intestinal epithelial cell monolayers” (Biochem Pharmacol, 1994).

This series concerns the target ATP-dependent translocase ABCB1 (Homo sapiens, UniProt P08183). Nature of the series: TP_TRANSPORTER: transepithelial transport (basal to apical) in Caco-2 cells. Format: functional, cell-based. Background: Caco-2 cells form a polarised layer with tight junctions and transporters.

ATP-dependent translocase ABCB1, sequence (P08183 whole entry): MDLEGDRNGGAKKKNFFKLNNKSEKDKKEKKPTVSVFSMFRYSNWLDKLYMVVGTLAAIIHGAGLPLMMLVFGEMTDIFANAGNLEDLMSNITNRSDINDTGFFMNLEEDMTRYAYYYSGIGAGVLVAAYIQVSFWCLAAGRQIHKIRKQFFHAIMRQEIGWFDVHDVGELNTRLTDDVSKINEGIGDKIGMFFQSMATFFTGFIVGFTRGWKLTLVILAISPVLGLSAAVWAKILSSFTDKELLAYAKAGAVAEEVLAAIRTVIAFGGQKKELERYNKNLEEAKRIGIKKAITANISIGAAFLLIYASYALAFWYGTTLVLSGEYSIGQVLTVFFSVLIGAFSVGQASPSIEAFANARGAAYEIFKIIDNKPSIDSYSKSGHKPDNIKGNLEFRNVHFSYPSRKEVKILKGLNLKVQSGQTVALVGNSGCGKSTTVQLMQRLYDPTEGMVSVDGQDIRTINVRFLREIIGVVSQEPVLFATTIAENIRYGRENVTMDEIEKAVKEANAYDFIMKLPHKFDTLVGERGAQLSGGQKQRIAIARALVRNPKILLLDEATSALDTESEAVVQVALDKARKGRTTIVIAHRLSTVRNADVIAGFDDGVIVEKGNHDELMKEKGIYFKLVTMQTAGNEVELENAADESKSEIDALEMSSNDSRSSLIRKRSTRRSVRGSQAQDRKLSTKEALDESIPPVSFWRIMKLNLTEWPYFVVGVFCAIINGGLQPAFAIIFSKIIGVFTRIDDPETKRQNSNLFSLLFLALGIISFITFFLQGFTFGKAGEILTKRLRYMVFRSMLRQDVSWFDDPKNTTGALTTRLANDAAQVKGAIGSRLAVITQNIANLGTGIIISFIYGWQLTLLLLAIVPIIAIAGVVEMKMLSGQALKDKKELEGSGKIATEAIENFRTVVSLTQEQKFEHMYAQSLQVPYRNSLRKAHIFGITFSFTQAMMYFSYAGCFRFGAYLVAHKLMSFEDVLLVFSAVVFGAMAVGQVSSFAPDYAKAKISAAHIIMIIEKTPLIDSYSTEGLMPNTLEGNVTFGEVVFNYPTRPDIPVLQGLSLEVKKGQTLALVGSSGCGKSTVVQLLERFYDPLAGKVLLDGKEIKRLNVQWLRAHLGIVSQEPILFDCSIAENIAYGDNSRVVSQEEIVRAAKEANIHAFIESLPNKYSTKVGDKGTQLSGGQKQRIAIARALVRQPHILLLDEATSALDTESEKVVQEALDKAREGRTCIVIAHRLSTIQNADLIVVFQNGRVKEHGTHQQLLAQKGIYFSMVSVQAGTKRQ

With `CC(=O)O[C@@]12CO[C@@H]1C[C@H](O)[C@@]1(C)C(=O)[C@H](O)C3=C(C)[C@@H](OC(=O)[C@H](O)[C@@H](NC(=O)OC(C)(C)C)c4ccccc4)C[C@@](O)([C@@H](OC(=O)c4ccccc4)[C@H]21)C3(C)C.O.O.O` [DOCETAXEL], the Activity result is “substrate [+]”.
